Molecules are shown by their SMILES.

One series relates to DU145. The experiment in a line: Cell viability assay. To be noted: Homo sapiens, DU-145, DU145 cells, 24 hrs, read-out: Inhibition of cancer cell proliferation IC50. The format is cell-based. The procedure: (§1) Cells were cultured at a density of 5×10^4 (U937) or 1×10^4 (PC-3, DU145, M12, HT29) cells per well in flat bottomed 96-well plates and treated with various concentrations of test compound at 37° C. (5% CO2). After 24 h, 20 μL of CellTiter 96® Aqueous One Solution Reagent (Promega, Madison, Wis.) was added to each well according to the manufacturer's instructions. After 1 hour, the cell viability was determined by measuring the absorbance at 490 nm using a micro-plate reader.

The subject of a further series is HT29. As to the kind of experiment: Cell viability assay. The format is cell-based. To be noted: Homo sapiens, HT-29, HT29 cells, 24 hrs, read-out: Inhibition of cancer cell proliferation IC50. As to the method: as §1
The next series concerns M12. As to the kind of experiment: Cell viability assay. Type of series: cell-based. To be noted: M12 cells, 24 hrs, read-out: Inhibition of cancer cell proliferation IC50. As to the method: as §1
The test system of another series is PC-3. The experiment in a line: Cell viability assay. Type of series: cell-based. To be noted: Homo sapiens, PC-3 cells, 24 hrs, read-out: Inhibition of cancer cell proliferation IC50. As to the method:
as §1

The subject of another series is U937. As to the kind of experiment: Cell viability assay. To be noted: Homo sapiens, U-937, U937 cells, 24 hrs, read-out: Inhibition of cancer cell proliferation IC50. Type of series: cell-based. The procedure: as §1
Another series has as its target T1, CDK2 (Homo sapiens, UniProt P24941).
T1 construct: Caliper Life Sciences (screening service)
The experiment in a line: In vitro kinase screening. Type of series: biochemical. To be noted: CDK2, 10 μM concentration. As to the method: (§2) Formula II [3-(2-aminoethyl)-5-(3-cyclohexylpropylidene)thiazolidine-2,4-dione] was screened against a panel of kinases at 10 μM concentration by Caliper Life Sciences according to their established protocol.

The next series addresses T2, FGFR1 (Homo sapiens, UniProt P11362).
T2 construct: Caliper Life Sciences (screening service)
As to the kind of experiment: In vitro kinase screening. Type of series: biochemical. To be noted: FGFR1, 10 μM concentration. As to the method:
as §2

The target in a further series is T3, PAK2 (Homo sapiens, UniProt Q13177).
T3 construct: Caliper Life Sciences
As to the kind of experiment: In vitro kinase screening. Type of series: biochemical. To be noted: PAK2, 10 μM concentration. The procedure: as §2

The next series deals with T4, ROCK2 (Homo sapiens, UniProt O75116).
T4 construct: Caliper Life Sciences
As to the kind of experiment: In vitro kinase screening. The format is biochemical. The settings on record: ROCK2, 10 μM concentration. The procedure: as §2

For another series, the system named is phosphorylation of ERK. The experiment in a line: Western blot analysis of p-ERK in U937 cells. To be noted: 3 μM, PMA/TPA 200 nM stimulation. Type of series: cell-based. The procedure: (§3) FIG. 1. U937 cells were treated with Formula II prepared as described in Example 4 [i.e. 3-(2-aminoethyl)-5-(3-cyclohexylpropylidene)thiazolidine-2,4-dione] for 1 h, then stimulated with PMA (200 nM) for 30 min. Lysates were analyzed for p-Akt, p-MEK, p-ERK and α-tubulin by western blot analysis.
(§4) Cells (5×10^5 per ml) were treated with various concentrations of test compound at 37° C. (5% CO2) for 3 hrs, then stimulated with TPA at a final concentration of 200 nM for 20 min. Samples from whole-cell pellets were prepared and 30 μg protein for each condition was subjected to SDS-PAGE, transferred onto a PVDF membrane, and blocked with 5% fat-free milk for 30 min. The membrane is probed with primary antibodies overnight at 4° C. followed by incubation with horseradish peroxidase-labeled anti-mouse IgG (1:5000, BD Biosciecne). The immunoreactive bands are detected by chemiluminescence methods (Pierce) and visualized on Kodak Omat film. The following primary antibodies were used: phospho-p44/42 MAPK (ERK1/2, Thr202/Tyr204), p44/42 MAPK, phospho-p90RSK (Thr359/Ser363), RSK1/RSK2/RSK3 (Cell Signaling). Blots were reprobed with antibodies against α-tubulin to ensure equal loading and transfer of proteins.

A further series has as its system p-MEK. The experiment in a line: Western blot analysis of p-MEK in U937 cells. The format is cell-based. To be noted: PMA/TPA 200 nM stimulation. The procedure: as §3, §4
Another series has as its system DU145 cells. As to the kind of experiment: Cell apoptosis assay (annexin V/PI flow cytometry). The settings on record: 24 hrs. The format is cell-based. As to the method:
(§5) FIG. 2. Indicated cancer cells were treated with Formula II synthesized as described in Example 4, 3-(2-aminoethyl)-5-(3-cyclohexylpropylidene)thiazolidine-2,4-dione, at indicated concentrations for 24 hrs, then stained with Annexin-V/PI and analyzed by flow cytometry.
(§6) Apoptosis was measured by flow cytometry using annexin V/propidium iodide (PI) as staining reagent. Briefly, after treatment with test compound of varying concentrations for varying intervals (4, 8, 18, 36 hrs), cells were washed twice with cold PBS and then resuspended in 1× binding buffer (10 mM HEPES [N-2-hydroxyethylpiperazine-N′-2-ethanesulfonic acid]/NaOH, pH 7.4, 140 mM […], 2.5 mM CaCl2). The cells were then incubated with annexin V-fluorescein isothiocyanate (FITC) (BD PharMingen, San Diego, Calif.) and 5 μg/mL propidium iodide (PI), and incubated for 15 minutes at room temperature in the dark per the manufacturer's instructions. The samples were analyzed by flow cytometry using a Becton Dickinson FACScan (Becton Dickinson, San Jose, Calif.) within 1 hr to determine the percentage of cells displaying annexin V staining (early apoptosis) or both annexin V and PI staining (late apoptosis).

In another series the test system is M12 cells. As to the kind of experiment: Cell apoptosis assay (annexin V/PI flow cytometry). Type of series: cell-based. The settings on record: 24 hrs. The procedure: as §5, §6
The test system of series [1] is U937 cells. The experiment in a line: Cell apoptosis assay (annexin V/PI flow cytometry). To be noted: 24 hrs. Type of series: cell-based. The procedure: as §5, §6
Series [2] relates to U937 cells. As to the kind of experiment: Cell cycle analysis (PI flow cytometry). Type of series: cell-based. To be noted: 24 h. The procedure:
FIG. 3. Effects of Formula II and Formula III on U937 cell cycle. Cells were treated with compounds prepared as described in Examples 4 and 8 [i.e. 3-(2-aminoethyl)-5-(3-cyclohexylpropylidene)thiazolidine-2,4-dione and 3-(2-aminoethyl)-5-(3-phenyl-propylidene)-thiazolidine-2,4-dione, respectfully] for 24 hrs, then cells were stained with PI and analyzed by flow cytometry.
After treatment of cells with test compound of varying concentrations for 24 hrs, cells were pelleted at 4° C., resuspended, fixed at 4° C. with 67% ethanol overnight, and treated on ice with a PI solution containing 3.8 mM Na citrate, 0.5 mg/mL RNase A (Sigma Chemical Co.), and 0.01 mg/mL PI (Sigma) for 3 hrs. Cell cycle analysis was performed by flow cytometry using Verity Winlist software (Topsham, Me.).
For orientation: A flow cytometer gives signals particle by particle.

The nature of a further series: Toxicity studies in mice. Type of series: in vivo. To be noted: B6C3F1 mice, orally 30 mg/kg, 50 mg/kg and 80 mg/kg, 21 days. As to the method: Female B6C3F1 mice (12/group) were given example 4 orally at 30 mg/kg, 50 mg/kg and 80 mg/kg dosage or example 820 mg/kg orally for 21 days.

T2 sequence (P11362 22-822): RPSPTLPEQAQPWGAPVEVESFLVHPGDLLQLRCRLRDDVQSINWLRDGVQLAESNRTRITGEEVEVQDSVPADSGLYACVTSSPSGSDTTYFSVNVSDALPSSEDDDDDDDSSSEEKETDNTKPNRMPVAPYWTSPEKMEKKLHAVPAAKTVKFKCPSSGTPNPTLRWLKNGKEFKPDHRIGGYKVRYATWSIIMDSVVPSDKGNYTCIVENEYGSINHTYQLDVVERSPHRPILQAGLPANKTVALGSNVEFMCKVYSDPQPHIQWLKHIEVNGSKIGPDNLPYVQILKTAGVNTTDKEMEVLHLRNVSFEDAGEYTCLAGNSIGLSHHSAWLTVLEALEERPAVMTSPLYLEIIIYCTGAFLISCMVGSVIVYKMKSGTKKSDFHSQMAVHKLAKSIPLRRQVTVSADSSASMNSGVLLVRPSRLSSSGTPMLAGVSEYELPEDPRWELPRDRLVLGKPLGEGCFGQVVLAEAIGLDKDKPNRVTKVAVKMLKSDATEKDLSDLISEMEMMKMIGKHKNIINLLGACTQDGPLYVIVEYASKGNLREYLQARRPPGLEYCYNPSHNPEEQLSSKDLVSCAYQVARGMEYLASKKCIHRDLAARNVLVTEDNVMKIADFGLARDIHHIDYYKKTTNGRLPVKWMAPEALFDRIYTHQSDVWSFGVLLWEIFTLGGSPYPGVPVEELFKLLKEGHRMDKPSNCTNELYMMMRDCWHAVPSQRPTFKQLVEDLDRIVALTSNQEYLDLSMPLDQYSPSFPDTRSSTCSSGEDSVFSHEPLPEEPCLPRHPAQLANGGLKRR
T3 sequence (Q13177 whole entry, species assumed): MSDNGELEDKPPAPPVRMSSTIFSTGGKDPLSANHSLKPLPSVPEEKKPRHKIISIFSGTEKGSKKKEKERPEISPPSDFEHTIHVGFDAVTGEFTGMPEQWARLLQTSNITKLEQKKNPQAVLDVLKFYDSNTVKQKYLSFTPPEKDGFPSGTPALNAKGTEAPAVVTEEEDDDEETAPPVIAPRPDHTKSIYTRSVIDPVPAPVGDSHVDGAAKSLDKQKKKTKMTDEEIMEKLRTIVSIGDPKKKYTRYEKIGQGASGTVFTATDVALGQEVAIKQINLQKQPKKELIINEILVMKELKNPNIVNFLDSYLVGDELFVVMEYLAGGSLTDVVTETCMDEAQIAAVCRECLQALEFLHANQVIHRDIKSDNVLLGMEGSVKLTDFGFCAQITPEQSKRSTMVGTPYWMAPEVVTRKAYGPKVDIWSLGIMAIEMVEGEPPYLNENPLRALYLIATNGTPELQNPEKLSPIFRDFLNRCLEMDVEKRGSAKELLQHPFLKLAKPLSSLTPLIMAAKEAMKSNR
T4 sequence (O75116 whole entry, species assumed): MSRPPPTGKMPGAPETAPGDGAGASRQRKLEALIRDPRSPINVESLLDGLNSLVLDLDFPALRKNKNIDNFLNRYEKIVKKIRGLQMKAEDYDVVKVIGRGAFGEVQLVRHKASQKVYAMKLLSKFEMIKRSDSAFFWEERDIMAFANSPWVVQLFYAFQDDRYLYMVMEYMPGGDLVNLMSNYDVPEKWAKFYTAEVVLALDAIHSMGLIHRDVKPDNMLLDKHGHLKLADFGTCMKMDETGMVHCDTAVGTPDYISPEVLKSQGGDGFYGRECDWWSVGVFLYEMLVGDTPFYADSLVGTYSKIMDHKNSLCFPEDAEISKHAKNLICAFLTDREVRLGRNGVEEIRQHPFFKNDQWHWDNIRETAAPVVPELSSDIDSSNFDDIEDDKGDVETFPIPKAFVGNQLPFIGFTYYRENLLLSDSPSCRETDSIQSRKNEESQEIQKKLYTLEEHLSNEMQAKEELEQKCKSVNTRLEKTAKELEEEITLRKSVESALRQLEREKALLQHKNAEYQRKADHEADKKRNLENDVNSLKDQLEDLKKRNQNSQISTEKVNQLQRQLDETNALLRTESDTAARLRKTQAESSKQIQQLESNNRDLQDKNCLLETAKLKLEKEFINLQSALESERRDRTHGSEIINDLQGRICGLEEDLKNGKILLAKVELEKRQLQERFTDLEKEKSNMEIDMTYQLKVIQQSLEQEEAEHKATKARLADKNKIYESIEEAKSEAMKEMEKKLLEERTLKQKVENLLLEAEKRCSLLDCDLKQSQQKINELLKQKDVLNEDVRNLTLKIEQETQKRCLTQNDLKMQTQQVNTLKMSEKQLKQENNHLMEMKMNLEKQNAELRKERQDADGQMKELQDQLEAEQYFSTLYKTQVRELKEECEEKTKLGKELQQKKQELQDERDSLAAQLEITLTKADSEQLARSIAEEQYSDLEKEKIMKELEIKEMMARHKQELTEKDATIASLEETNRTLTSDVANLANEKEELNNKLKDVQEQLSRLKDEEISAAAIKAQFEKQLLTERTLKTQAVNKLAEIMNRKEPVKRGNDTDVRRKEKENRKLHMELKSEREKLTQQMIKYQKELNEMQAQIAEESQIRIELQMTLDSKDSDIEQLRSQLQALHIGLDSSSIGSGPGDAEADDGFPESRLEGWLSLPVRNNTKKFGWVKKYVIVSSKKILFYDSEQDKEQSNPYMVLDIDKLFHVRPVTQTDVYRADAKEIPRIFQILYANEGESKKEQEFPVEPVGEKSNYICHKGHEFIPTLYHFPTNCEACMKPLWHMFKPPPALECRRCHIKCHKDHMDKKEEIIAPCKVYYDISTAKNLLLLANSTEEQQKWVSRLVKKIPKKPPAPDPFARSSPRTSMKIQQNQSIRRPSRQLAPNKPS

For `NCCN1C(=O)S/C(=C\CCC2CCCCC2)C1=O` [Example 4, 3-(2-aminoethyl)-5-(3-cyclohexylpropylidene)thiazolidine-2,4-dione], the IC50 with DU145 worked out at 4.8 µM; in the series with HT29, 17.9 µM; in the series on M12, 4.51 µM; with PC-3 it was 4.46 µM; in the series on U937 it was 2.21 µM. Moreover, the inhibition (as a rule, the drop in the measured response relative to a control, in per cent) at 10 µM against CDK2 was -2%; against FGFR1, 3%; at PAK2 it was 10%; against ROCK2 it was -1%. In the series on phosphorylation of ERK, the “phosphorylation of ERK (p-ERK, western blot)” value is on record as “significantly inhibited the phosphorylation of ERK”. Also, the “p-MEK level (western blot)” value in the series with p-MEK is reported as “dose-dependently decreased the p-MEK level”. In addition, the “apoptosis (Annexin-V/PI)” value in the series with DU145 cells is “minimal apoptotic effects”; in the series on M12 cells, “significantly and dose-dependently induced apoptosis”; in the series with U937 cells [1] it was “significantly and dose-dependently induced apoptosis”. In the series on U937 cells [2], the “effect on cell cycle” value is “arrested U937 cells at G2/M phase”. Also, in the series “Toxicity studies in mice”, the “effects on general health and body weight” value was “no effects on general health and body weight were observed”.

Source of the values: US20110166191A1, “3-(2-amino-ethyl)-5-(3-cyclohexyl-propylidene)-thiazolidine-2,4-dione and its derivatives as multiple signaling pathway inhibitors and for the treatment of cancer” (priority 2010, published 2011).
